Laboratory results as given in patent US20200179269A1, “VAPORIZABLE COMPOSITIONS COMPRISING CANNABINOL” (KANABO RESEARCH LTD., priority 2017, published 2020).

Test system: Loss of Righting Reflex (LORR) in mice
Assay: Sleep induction model in mice: Loss of Righting Reflex (LORR) after Pentobarbital, sleep latency and sleep duration
Type: in vivo, mice BALB/c
Parameters: Sleep latency median / Sleep latency (mean) / Sleep duration median / Sleep duration (mean): unit not given here
Excerpt: The objective of the present study is to evaluate various cannabinoid mixtures with terpenes in the sleep induction model in mice and then in the second part optimize the doses.
Study Variables and End Points • Mortality and morbidity—once a day. • Body weight—during acclimation and before dosing. • Behavioral test—righting reflex—sleep latency and duration
The principle of the study is based on the ability of sleep promoting agents to shorten the time until Loss of Righting Reflex (LORR) occurs and prolong the presence of LORR in rodents treated with established anesthetizing agent.
Mice were be utilized and divided into 62 groups of three in each group.
Combinations of 3 different cannabinoids: CBN, CBD and THC and 2 terpenes: (β-myrcene and linalool were tested. Diazepam (2 mg/kg) was used as a positive control. Ethanol:Cremophor:Saline (1:1:18) was used as negative control. The items were dissolved in Ethanol:Cremophor:Saline. The items, positive and negative controls were IP injected. Three (or four) mice were used for each group. 5 cycles of experiments were performed. In Cycles 1 each cannabinoid at different concentrations was separately administered; in Cycle 2—combinations of the cannabinoids with different concentration were administered (4 mice per group were used for items), in Cycle 3—different terpenes at different concentration were administered, in Cycle 4—combinations of different cannabinoids and terpenes were administered and in Cycle 5—compositions with high content of cannabinoids and low content of terpenes were tested (4 mice per group).
Female mice BALB/c strain of 7 weeks age were used for the experiment. The mice were allowed to acclimatize for at least 5 days. Animals were fed ad libitum a commercial rodent diet (Teklad Certified Global 18% Protein Diet, Harlan cat #2018). Animals had free access to sterilized and acidified drinking water (pH between 2.5 and 3.5) obtained from the municipality supply. Animals were housed under standard laboratory conditions, air conditioned and filtered (HEPA F6/6) with adequate fresh air supply (Minimum 15 air changes/hour). Animals were kept in a climate controlled environment. Temperatures range were 18-24° C. and relative humidity range 30-70% with a 12 hours light and 12 hours dark cycle (6 AM/6 PM).
The duration of the study was one day per cycle. The study was conducted in five cycles (see Tables 10-15). Each Test Item or vehicle formulation was administrated to three (or four) animals per group. Morbidity and mortality was checked once a day.
Sleeping Test was performed according to Pharmaseed's SOP No. 130: “Loss of Righting Reflex”. Mice were injected intraperitoneally (IP) with the positive control Diazepam (2 mg/kg, IP), vehicle or with the Test Items 30 minutes prior to Pentobarbital (40 mg/kg, IP) administration. Observation of the mouse begun immediately after administration of Pentobarbital. Once the mouse was asleep (the loss of righting reflex—LORR), it was be transferred to a home cage and placed on its back. Mice was considered awake when they could successfully upright themselves (all four feet in contact with the surface). Once a mouse righted itself, it was placed on its back once again and allowed to right a second time for confirmation. Expected sleep onset and duration of the negative control group was 5-8 min and 20-25 min, respectively. For positive control expected sleep onset and duration were 3-4 min and 40-50 min, respectively.
While the animals were asleep, fatty ophthalmic ointment (e.g. Duratears®) was be applied to their eyes to avoid drying of the eye. Also, since Diazepam might cause hypothermia, the cages with the sleeping mice were be placed on a heating pad.
The following parameters were be recorded and served as an index of sleep behavior: • Sleep latency—time required to sleep induction. • Sleep duration.
At termination, the animals were sacrificed by CO2 asphyxiation.

[1] = Cycle 4, group 43F, Diazepam 2 mg/kg
[2] = Cycle 1, high doses (above 5 mg/kg)

C=C(C)[C@@H]1CCC(C)=C[C@H]1c1c(O)cc(CCCCC)cc1O [CBD, cannabidiol]
effect on sleeping (Cycle 1, 1 mg/kg dose): assisted in sleeping | Sleep duration (mean) (Cycle 1, dose 1 mg/kg IP): (14) | Sleep duration median (Cycle 1, dose 1 mg/kg IP): 9 | Sleep latency (mean) (Cycle 1, dose 1 mg/kg IP): (13) | Sleep latency median (Cycle 1, dose 1 mg/kg IP): 16 | Sleep duration (mean) (Cycle 1, dose 5 mg/kg IP): (49) | Sleep duration median (Cycle 1, dose 5 mg/kg IP): 49 | Sleep latency (mean) (Cycle 1, dose 5 mg/kg IP): (6) | Sleep latency median (Cycle 1, dose 5 mg/kg IP): 6 | Sleep duration (mean) (Cycle 1, dose 20 mg/kg IP): (48) | Sleep duration median (Cycle 1, dose 20 mg/kg IP): 48 | Sleep latency (mean) (Cycle 1, dose 20 mg/kg IP): (8) | Sleep latency median (Cycle 1, dose 20 mg/kg IP): 9 | Sleep duration (mean) (Cycle 1, dose 50 mg/kg IP): (84) | Sleep duration median (Cycle 1, dose 50 mg/kg IP): 68 | Sleep latency (mean) (Cycle 1, dose 50 mg/kg IP): (6) | Sleep latency median (Cycle 1, dose 50 mg/kg IP): 6

CCCCCc1cc(O)c2c(c1)OC(C)(C)c1ccc(C)cc1-2 [CBN, 6,6,9-trimethyl-3-pentylbenzo[c]chromen-1-ol]
dose response for duration of sleep parameter (Cycle 1): moderate dose response | Sleep duration (mean) (Cycle 1, dose 0.1 mg/kg IP): (26) | Sleep duration median (Cycle 1, dose 0.1 mg/kg IP): 34 | Sleep latency (mean) (Cycle 1, dose 0.1 mg/kg IP): (5) | Sleep latency median (Cycle 1, dose 0.1 mg/kg IP): 4 | Sleep duration (mean) (Cycle 1, dose 0.5 mg/kg IP): (14) | Sleep duration median (Cycle 1, dose 0.5 mg/kg IP): 15 | Sleep latency (mean) (Cycle 1, dose 0.5 mg/kg IP): (8) | Sleep latency median (Cycle 1, dose 0.5 mg/kg IP): 8 | Sleep duration (mean) (Cycle 1, dose 2 mg/kg IP): (23) | Sleep duration median (Cycle 1, dose 2 mg/kg IP): 25 | Sleep latency (mean) (Cycle 1, dose 2 mg/kg IP): (6) | Sleep latency median (Cycle 1, dose 2 mg/kg IP): 6 | Sleep duration (mean) (Cycle 1, dose 5 mg/kg IP): (31) | Sleep duration median (Cycle 1, dose 5 mg/kg IP): 32 | Sleep latency (mean) (Cycle 1, dose 5 mg/kg IP): (9) | Sleep latency median (Cycle 1, dose 5 mg/kg IP): 8

CN1C(=O)CN=C(c2ccccc2)c2cc(Cl)ccc21 [Diazepam, reference compound]
state of the mice after awakening (Cycle 1): remained dizzy for a prolonged period of time | Sleep duration (mean) (Cycle 1, dose 2 mg/kg IP): (94) | Sleep duration median (Cycle 1, dose 2 mg/kg IP): 94 | Sleep latency (mean) (Cycle 1, dose 2 mg/kg IP): (3) | Sleep latency median (Cycle 1, dose 2 mg/kg IP): 2 | Sleep duration (mean) (Cycle 2, dose 2 mg/kg IP): (51.7) | Sleep duration median (Cycle 2, dose 2 mg/kg IP): 56 | Sleep latency (mean) (Cycle 2, dose 2 mg/kg IP): (4.3) | Sleep latency median (Cycle 2, dose 2 mg/kg IP): 4 | Sleep duration (mean) (Cycle 3, Dose 2, IP): (66.3) | Sleep duration median (Cycle 3, Dose 2, IP): 60 | Sleep latency (mean) (Cycle 3, Dose 2, IP): (2.3) | Sleep latency median (Cycle 3, Dose 2, IP): 2 | Sleep duration (mean) [1]: (76) | Sleep duration median [1]: 69 | Sleep latency (mean) [1]: (3.3) | Sleep latency median [1]: 3

C=CC(C)(O)CCC=C(C)C (stereo not shown) [Linalool, linalool]
Sleep duration (mean) (Cycle 3, Dose 20, IP): (5.3) | Sleep duration median (Cycle 3, Dose 20, IP): 6 | Sleep latency (mean) (Cycle 3, Dose 20, IP): (5) | Sleep latency median (Cycle 3, Dose 20, IP): 5 | Sleep duration (mean) (Cycle 3, Dose 100, IP): (5.3) | Sleep duration median (Cycle 3, Dose 100, IP): 6 | Sleep latency (mean) (Cycle 3, Dose 100, IP): (5.5) | Sleep latency median (Cycle 3, Dose 100, IP): 5 | Sleep duration (mean) (Cycle 3, Dose 300, IP): (97.3) | Sleep duration median (Cycle 3, Dose 300, IP): 120 | Sleep latency (mean) (Cycle 3, Dose 300, IP): (2) | Sleep latency median (Cycle 3, Dose 300, IP): 2 | dose response of the terpene in combination with CBN and CBD (Cycle 4): evident dose response | Sleep duration (mean) (Cycle 5, dose 10 mg/kg IP): (6) | Sleep duration median (Cycle 5, dose 10 mg/kg IP): 6.5 | Sleep latency (mean) (Cycle 5, dose 10 mg/kg IP): (8) | Sleep latency median (Cycle 5, dose 10 mg/kg IP): 8

C=CC(=C)CCC=C(C)C [Myrcene, β-myrcene]
Sleep duration (mean) (Cycle 3, Dose 20, IP): (8.7) | Sleep duration median (Cycle 3, Dose 20, IP): 9 | Sleep latency (mean) (Cycle 3, Dose 20, IP): (4.7) | Sleep latency median (Cycle 3, Dose 20, IP): 5 | Sleep duration (mean) (Cycle 3, Dose 100, IP): (7.3) | Sleep duration median (Cycle 3, Dose 100, IP): 7 | Sleep latency (mean) (Cycle 3, Dose 100, IP): (5) | Sleep latency median (Cycle 3, Dose 100, IP): 5 | Sleep duration (mean) (Cycle 3, Dose 300, IP): (61.3) | Sleep duration median (Cycle 3, Dose 300, IP): 31 | Sleep latency (mean) (Cycle 3, Dose 300, IP): (3) | Sleep latency median (Cycle 3, Dose 300, IP): 3 | dose response of the terpene in combination with CBN and CBD (Cycle 4): evident dose response | Sleep duration (mean) (Cycle 5, dose 10 mg/kg IP): (5) | Sleep duration median (Cycle 5, dose 10 mg/kg IP): 5 | Sleep latency (mean) (Cycle 5, dose 10 mg/kg IP): (5) | Sleep latency median (Cycle 5, dose 10 mg/kg IP): 5

CCCCCc1cc(O)c2c(c1)OC(C)(C)[C@@H]1CCC(C)=C[C@@H]21 [THC, tetrahydrocannabinol]
state of the mice after awakening (Cycle 1): much more vivid after awakening | Sleep duration (mean) (Cycle 1, dose 0.5 mg/kg IP): (6) | Sleep duration median (Cycle 1, dose 0.5 mg/kg IP): 8 | Sleep latency (mean) (Cycle 1, dose 0.5 mg/kg IP): (4) | Sleep latency median (Cycle 1, dose 0.5 mg/kg IP): 4 | Sleep duration (mean) (Cycle 1, dose 2 mg/kg IP): (12) | Sleep duration median (Cycle 1, dose 2 mg/kg IP): 0 | Sleep latency (mean) (Cycle 1, dose 2 mg/kg IP): (20) | Sleep latency median (Cycle 1, dose 2 mg/kg IP): 20 | Sleep duration (mean) (Cycle 1, dose 5 mg/kg IP): (10) | Sleep duration median (Cycle 1, dose 5 mg/kg IP): 9 | Sleep latency (mean) (Cycle 1, dose 5 mg/kg IP): (25) | Sleep latency median (Cycle 1, dose 5 mg/kg IP): 24 | Sleep duration (mean) (Cycle 1, dose 10 mg/kg IP): (21) | Sleep duration median (Cycle 1, dose 10 mg/kg IP): 11 | Sleep latency (mean) (Cycle 1, dose 10 mg/kg IP): (11) | Sleep latency median (Cycle 1, dose 10 mg/kg IP): 11 | effect on sleep duration [2]: decreases the sleep duration | effect on sleep latency (time required for falling asleep) [2]: increases the sleep latency | effect on onset of sleep (Cycle 1, medium concentrations (2-5 mg/kg)): increases the onset of sleep | effect of addition to the combination of CBN, CBD and terpene (Cycle 4, 0.5 mg/kg): reduced the observed effect
